Laboratory results published in patent US20080096861A1, “Chemical Compounds” (SMITHKLINE BEECHAM CORPORATION, priority 2004, published 2008).
Read-outs that look alike come from different tables or passages of the source.

Key:
Type in all cases: cell-based
CXCR4 receptor = molecular target: T1, CXCR4 receptor (Homo sapiens, UniProt P61073); test: Functional FLIPR assay (block of SDF-1 alpha induced [Ca2+]i change); conditions: HEK-293 cells, human CXCR4 BacMam and Gqi5 BacMam, read-out: Functional assay (pIC50) (converted)
T1 construct: expressed in transfected cells; host or cells: HEK-293 cells (stably expressing human macrophage scavenger receptor) transduced with human CXCR4 BacMam and Gqi5 BacMam
T1 sequence (P61073 whole entry): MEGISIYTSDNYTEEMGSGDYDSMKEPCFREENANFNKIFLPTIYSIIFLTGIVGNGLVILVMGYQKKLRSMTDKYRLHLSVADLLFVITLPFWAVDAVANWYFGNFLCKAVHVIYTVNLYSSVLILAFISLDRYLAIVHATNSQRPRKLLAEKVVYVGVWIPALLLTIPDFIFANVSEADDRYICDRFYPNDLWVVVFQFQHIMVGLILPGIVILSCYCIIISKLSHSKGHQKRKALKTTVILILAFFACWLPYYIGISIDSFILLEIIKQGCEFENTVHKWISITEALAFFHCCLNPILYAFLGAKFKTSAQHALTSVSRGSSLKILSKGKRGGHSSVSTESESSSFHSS
Protocol: Human embryonic kidney (HEK-293) cells were maintained and harvested as described above. Cells were plated in 96-well, black clear bottom, poly-lysine coated plates at a concentration of 40,000 cells per well in a final volume of 100 ul containing human CXCR4BacMam (MOI=25) and Gqi5 BacMam (MOI=12.5). The cells were incubated at 37° C., 5% CO2, 95% humidity for 24 h to allow for protein expression.
After the required incubation time the cells were washed once with 50 ul of fresh serum-free DMEM/F12 media containing probenicid. 50 ul of dye solution was then added to the cells (Calcium Plus Assay Kit Dye; Molecular Devices) was dissolved in 200 ml of the above probenicid/BSA containing media and incubated for 1 h. Cell plates were transferred to a Fluorometric Imaging Plate Reader (FLIPR). Upon addition the effect of the compounds on the change in [Ca^2+]i was examined to determine if the compounds were agonists or antagonists (ability to block SDF-1 alpha activity) at the CXCR4 receptor. IC50 values are determined and pKb values are calculated using the Leff and Dougall equation: KB═IC50/((2+([agonist]/EC50̂b)̂1/b−1) Where IC50 is that defined by the antagonist concentration-response curve [agonist)] is the EC80 concentration of agonist used EC50 is that defined by the agonist concentration-response curve b is the slope of the agonist concentration-response curve.

[1] = tested on: HIV-1 gp160 (HXB2 strain) mediated cell/cell fusion; test: Cell/cell fusion assay (HOS hCXCR4/hCCR5/hCD4/pHIV-LTR-luciferase cells with HEK-293 cells expressing HIV-1 tat, rev, gp160), luciferase readout; conditions: Homo sapiens, HEK293, 24 h, read-out: Fusion assay (pIC50) (converted)
Description: The complete coding sequences of HIV-1 tat (GenBank Accession No. X07861) and rev (GenBank Accession No. M34378) were cloned into pcDNA3.1 expression vectors containing G418 and hygromycin resistance genes, respectively. The complete coding sequence of the HIV-1 (HXB2 strain) gp160 envelope gene (nucleotide bases 6225-8795 of GenBank Accession No. K03455) was cloned into plasmid pCRII-TOPO. The three HIV genes were additionally inserted into the baculovirus shuttle vector, pFastBacMam1, under the transcriptional control of the CMV promoter. A construction of the pHIV-1 LTR containing mutated NFkB sequences linked to the luciferase reporter gene was prepared by digesting pcDNA3.1, containing the G418 resistance gene, with Nru I and Bam HI to remove the CMV promoter. LTR-luc was then cloned into the Nru I/Bam HI sites of the plasmid vector. Plasmid preparations were performed after the plasmids were amplified in Escherichia coli strain DH5-alpha. The fidelity of the inserted sequences was confirmed by double-strand nucleotide sequencing using an ABI Prism Model 377 automated sequencer.
Recombinant BacMam baculoviruses were constructed from pFastBacMam shuttle plasmids by using the bacterial cell-based Bac-to-Bac system. Viruses were propagated in Sf9 (Spodoptera frugiperda) cells cultured in Hink's TNM-FH Insect media supplemented with 10% (v/v) fetal bovine serum and 0.1% (v/v) pluronic F-68 according to established protocols.
Human osteosarcoma (HOS) cells that naturally express human CXCR4 were transfected with human CCR5, human CD4 and the pHIV-LTR-luciferase plasmid using FuGENE 6 transfection reagent. Single cells were isolated and grown under selection condition in order to generate a stable HOS (hCXCR4/hCCR5/hCD4/pHIV-LTR-luciferase) clonal cell line. The cells were maintained in Dulbeccos modified Eagles media supplemented with 10% fetal calf serum (FCS), G418 (400 ug/ml), puromycin (1 ug/ml), mycophenolic acid (40 ug/ml), xanthine (250 ug/ml) and hypoxanthine (13.5 ug/ml) to maintain a selection pressure for cells expressing the LTR-luciferase, hCCR5 and hCD4, respectively. Human embryonic kidney (HEK-293) cells stably transfected to express the human macrophage scavenging receptor (Class A, type 1; GenBank Accession No. D90187), were maintained in DMEM/F-12 media (1:1) supplemented with 10% FCS and 1.5 ug/ml puromycin. The expression of this receptor by the HEK-293 cells enhances their ability to stick to tissue culture treated plasticware.
HEK-293 cells were harvested using enzyme-free cell dissociation buffer. The cells were resuspended in DMEM/F-12 media supplemented with 10% FCS and 1.5 ug/ml and counted. Tranductions were performed by direct addition of BacMam baculovirus containing insect cell media to cells. The cells were simultaneously transduced with BacMam baculovirus expressing HIV-1 tat, HIV-1 rev and HIV-1 gp160 (from the HXB2 HIV strain). Routinely an MOI of 10 of each virus was added to the media containing the cells. 2 mM butyric acid was also added to the cells at this stage to increase protein expression in transduced cells. The cells were subsequently mixed and seeded into a flask at 30 million cells per T225. The cells were incubated at 37° C., 5% CO2, 95% humidity for 24 h to allow for protein expression.
HEK and HOS cells were harvested in DMEM/F-12 media containing 2% FCS and DMEM media containing 2% FCS, respectively, with no selection agents added. Compounds were plated as 1 ul spots in 100% DMSO on a 96-well CulturPlate plates. HOS cells (50 ul) were added first to the wells, followed immediately by the HEK cells (50 ul). The final concentration of each cell type was 20,000 cells per well. Following these additions, the cells were returned to a tissue culture incubator (37° C.; 5% CO2/95% air) for an additional 24 h.
Following the 24 h incubation, total cellular luciferase activity was measured using the LucLite Plus assay kit (Packard, Meridien, Conn.). […]

[2] = Compound cytotoxicity in HOS cells in the absence of virus (CellTiter-Glo); conditions: human, no virus, read-out: Cytotox (pIC50) (converted)
Protocol: Compounds were profiled against two HIV-1 viruses, the M-tropic (CCR5 utilizing) Ba-L strain and the T-tropic (CXCR4 utilizing) IIIB strain. Both viruses were propagated in human peripheral blood lymphocytes. Compounds were tested for there ability to block infection of the HOS cell line (expressing hCXCR4/hCCR5/hCD4/pHIV-LTR-luciferase) by either HIV-1 Ba-L or HIV-1 IIIB. Compound cytotoxicity was also examined in the absence of virus addition.
HOS cells (expressing hCXCR4/hCCR5/hCD4/pHIV-LTR-luciferase) were harvested and diluted in Dulbeccos modified Eagles media supplemented with 2% FCS and non-essential amino acid to a concentration of 60,000 cells/ml. The cells were plated into 96-well plates (100 ul per well) and the plates were placed in a tissue culture incubator (37° C.; 5% CO2/95% air) for a period of 24 h.
Subsequently, 50 ul of the desired drug solution (4 times the final concentration) was added to each well and the plates were returned to the tissue culture incubator (37° C.; 5% CO2/95% air) for 1 h. Following this incubation 50 ul of diluted virus was added to each well (approximately 2 million RLU per well of virus). The plates were returned to the tissue culture incubator (37° C.; 5% CO2/95% air) and were incubated for a further 96 h.
Following this incubation the endpoint for the virally infected cultures was quantified following addition of Steady-Glo Luciferase assay system reagent (Promega, Madison, Wis.). Cell viability or non-infected cultures was measured using a CellTiter-Glo luminescent cell viability assay system (Promega, Madison, Wis.). All luminescent readouts are performed on a Topcount luminescence detector (Packard, Meridien, Conn.).

HIV-1 IIIB = test: HOS HIV-1 infectivity assay
How it was run: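 HOS cells expressing hCXCR4/hCCR5/hCD4 and an HIV-LTR-luciferase reporter, in DMEM with 2% FCS, were pre-treated with compound for 1 h, then infected with HIV-1 IIIB (~2 million RLU/well) for 96 h at 37° C. Infection was read by Steady-Glo luciferase; cytotoxicity in uninfected cultures by CellTiter-Glo.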

[3] = Human immunodeficiency virus 1, IIIB, as determined by the infectivity assay, strain not stated in Table 2, read-out: Activity Level
[4] = Human immunodeficiency virus 1, T-tropic (CXCR4 utilizing) IIIB strain, HOS cells, 96 h, read-out: HOS (3B)

## CN(Cc1nc2ccccc2n1Cc1cccnc1)C1CCCc2cccnc21 (stereo not shown) [Example 3, N-Methyl-N-{[1-(3-pyridinylmethyl)-1H-benzimidazol-2-yl]methyl}-5,6,7,8-tetrahydro-8-quinolinamine]
CXCR4 receptor
  IC50: 398 nM
[1]
  IC50: 1780 nM
[2]
  IC50 at 96 h: > 100000 nM
HIV-1 IIIB; [3]
  IC50: 0.5 to 10 µM
HIV-1 IIIB; [4]
  IC50: 0.574 µM

## CN(Cc1nc2ccccc2n1CCN1CCCCC1)C1CCCc2cccnc21 (stereo not shown) [Example 4, N-Methyl-N-({1-[2-(1-piperidinyl)ethyl]-1H-benzimidazol-2-yl}methyl)-5,6,7,8-tetrahydro-8-quinolinamine]
CXCR4 receptor
  IC50: 60.3 nM
[1]
  IC50: 138 nM
[2]
  IC50 at 96 h: > 100000 nM
HIV-1 IIIB; [3]
  IC50: 0.1 to 0.5 µM
HIV-1 IIIB; [4]
  IC50: 0.156 µM

## CN(Cc1nc2ccccc2n1CCN1CCOCC1)C1CCCc2cccnc21 (stereo not shown) [Example 5, N-Methyl-N-({1-[2-(4-morpholinyl)ethyl]-1H-benzimidazol-2-yl}methyl)-5,6,7,8-tetrahydro-8-quinolinamine]
CXCR4 receptor
  IC50: 123 nM
[1]
  IC50: 200 nM
[2]
  IC50 at 96 h: > 100000 nM
HIV-1 IIIB; [3]
  IC50: 0.1 to 0.5 µM
HIV-1 IIIB; [4]
  IC50: 0.225 µM

## CN(Cc1nc2ccccc2n1CC1CCNCC1)C1CCCc2cccnc21 (stereo not shown) [Example 6, N-Methyl-N-{[1-(4-piperidinylmethyl)-1H-benzimidazol-2-yl]methyl}-5,6,7,8-tetrahydro-8-quinolinamine]
CXCR4 receptor
  IC50: 282 nM
[1]
  IC50: 240 nM
[2]
  IC50 at 96 h: > 100000 nM
HIV-1 IIIB; [3]
  IC50: < 0.1 µM
HIV-1 IIIB; [4]
  IC50: 0.09 µM

## CN1CCCC(Cn2c(CN(C)C3CCCc4cccnc43)nc3ccccc32)C1 (stereo not shown) [Example 7, N-Methyl-N-({1-[(1-methyl-3-piperidinyl)methyl]-1H-benzimidazol-2-yl}methyl)-5,6,7,8-tetrahydro-8-quinolinamine]
CXCR4 receptor
  IC50: 8.13 nM
[1]
  IC50: 20.9 nM
[2]
  IC50 at 96 h: > 100000 nM
HIV-1 IIIB; [3]
  IC50: < 0.1 µM
HIV-1 IIIB; [4]
  IC50: 0.019 µM

## CN1CCC(Cn2c(CN(C)C3CCCc4cccnc43)nc3ccccc32)C1 (stereo not shown) [Example 8d, N-Methyl-N-({1-[(1-methyl-3-pyrrolidinyl)methyl]-1H-benzimidazol-2-yl}methyl)-5,6,7,8-tetrahydro-8-quinolinamine]
CXCR4 receptor
  IC50: 74.1 nM
[1]
  IC50: 74.1 nM
[2]
  IC50 at 96 h: > 100000 nM
HIV-1 IIIB; [3]
  IC50: < 0.1 µM
HIV-1 IIIB; [4]
  IC50: 0.057 µM

## CN1CCN(CCCn2c(CN(C)C3CCCc4cccnc43)nc3ccccc32)CC1 (stereo not shown) [Example 9, N-Methyl-N-({1-[3-(4-methyl-1-piperazinyl)propyl]-1H-benzimidazol-2-yl}methyl)-5,6,7,8-tetrahydro-8-quinolinamine]
CXCR4 receptor
  IC50: 135 nM
[1]
  IC50: 166 nM
[2]
  IC50 at 96 h: > 100000 nM
HIV-1 IIIB; [3]
  IC50: < 0.1 µM
HIV-1 IIIB; [4]
  IC50: 0.093 µM

## CN1CC(Cn2c(CN(C)C3CCCc4cccnc43)nc3ccccc32)C1 (stereo not shown) [Example 10e, N-Methyl-N-({1-[(1-methyl-3-azetidinyl)methyl]-1H-benzimidazol-2-yl}methyl)-5,6,7,8-tetrahydro-8-quinolinamine]
CXCR4 receptor
  IC50: 117 nM
[1]
  IC50: 91.2 nM
[2]
  IC50 at 96 h: > 100000 nM
HIV-1 IIIB; [3]
  IC50: < 0.1 µM
HIV-1 IIIB; [4]
  IC50: 0.066 µM

## CN1CCC(n2c(CN(C)C3CCCc4cccnc43)nc3ccccc32)CC1 (stereo not shown) [Example 11i, N-Methyl-N-{[1-(1-methyl-4-piperidinyl)-1H-benzimidazol-2-yl]methyl}-5,6,7,8-tetrahydro-8-quinolinamine]
CXCR4 receptor
  IC50: 37.2 nM
[1]
  IC50: 79.4 nM
[2]
  IC50 at 96 h: > 100000 nM
HIV-1 IIIB; Human immunodeficiency virus 1, IIIB, HOS, 96 h, read-out: HOS (3B) (uM)
  IC50: 0.082 µM
HIV-1 IIIB; Human immunodeficiency virus 1, IIIB, read-out: Activity Level
  IC50: < 0.1 µM

## CN(Cc1nc2ccccc2n1Cc1ccc(CNCc2ccccn2)cc1)C1CCCc2cccnc21 (stereo not shown) [Example 12, N-Methyl-N-({1-[(4-{[(2-pyridinylmethyl)amino]methyl}phenyl)methyl]-1H-benzimidazol-2-yl}methyl)-5,6,7,8-tetrahydro-8-quinolinamine]
CXCR4 receptor
  IC50: 224 nM
[1]
  IC50: 575 nM
[2]
  IC50 at 96 h: > 100000 nM
HIV-1 IIIB; [3]
  IC50: 0.1 to 0.5 µM
HIV-1 IIIB; [4]
  IC50: 0.376 µM

## CN(Cc1nc2ccccc2n1CCCCN)C1CCCc2cccnc21 (stereo not shown) [Example 13, N-{[1-(4-Aminobutyl)-1H-benzimidazol-2-yl]methyl}-N-methyl-5,6,7,8-tetrahydro-8-quinolinamine]
CXCR4 receptor
  IC50: 302 nM
[1]
  IC50: 126 nM
[2]
  IC50 at 96 h: > 100000 nM
HIV-1 IIIB; [3]
  IC50: 0.1 to 0.5 µM
HIV-1 IIIB; [4]
  IC50: 0.131 µM

## CN(Cc1nc2ccccc2n1CCN)C1CCCc2cccnc21 (stereo not shown) [Example 18, N-{[1-(2-Aminoethyl)-1H-benzimidazol-2-yl]methyl}-N-methyl-5,6,7,8-tetrahydro-8-quinolinamine]
CXCR4 receptor
  IC50: 166 nM
[1]
  IC50: 316 nM
[2]
  IC50 at 96 h: > 100000 nM
